Data taken from US10941157B2, “Pesticidal compositions and uses thereof” (Gilead Apollo, LLC, priority 2015, dated 2021).
In brackets after ≈: the same amount, converted by molar mass. Read-outs that look alike come from different tables or passages of the source.

Assays:
[1] = tested on: Collectotrichum graminicola (Cg); assay: In vitro pathogen growth inhibition assay, Cg; format: cell-based; settings: 48 h
In short: (§1)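 Value reported is the compound concentration reaching ≥90% growth inhibition, from OD readings at 24 and 48 h after blank subtraction, confirmed visually. Inoculum was spores diluted in 17% V8 medium, except Rs, using 1.5 mm mycelial plugs in ¼ PDB; actual compound concentration corrected via OD600.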

[2] = tested on: Botrtyis cinerea (Bc); assay: In vitro pathogen growth inhibition assay, Bc; format: cell-based; settings: 48 h
In short: as §1

[3] = tested on: Rhizoctonia solani (Rs); assay: In vitro pathogen growth inhibition assay, Rs (mycelial plugs); format: cell-based; settings: Rhizoctonia solani, 48 h, mycelial plugs
In short: (§2)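 Spores of Dm, Fv and Pc were diluted in 17% V8 liquid medium; Rs used 1.5 mm mycelial plugs in ¼ PDB. Compounds from 2.5 mg/ml DMSO stocks were combined with inoculum, growth was read by OD600 at 24 and 48 h with blank subtraction, and the reported value is the concentration giving ≥90% inhibition.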

[4] = tested on: Fusarium graminearum; format: in vivo; settings: corn from treated seeds, 0.025 mg/seed, F. graminearum inoculated
[5] = tested on: Fusarium graminearum; format: in vivo; settings: spray on flowering Triticum aestivum cv. Samson, inoculated 24 hours after treatment, evaluated 14 days later
[6] = tested on: Sphaerotheca fuliginea; assay: Foliar protection for cucumber powdery mildew control; format: in vivo; settings: foliar spray on Cucumis sativus cv. Straight Eight, inoculated 24 hours after treatment, evaluated 7 days later
In short: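 Protective foliar spray on 10-day-old Straight Eight cucumbers, with S. fuliginea spores dusted from infected stock plants 24 h after treatment. Disease developed at 23–27 °C, 60% RH and a 16 h photoperiod. Leaves were rated for mildew growth after 7 days; test rates 10 ppm or below.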

[7] = tested on: Septoria tritici (St); assay: In vitro pathogen growth inhibition assay, St; format: cell-based; settings: Zymoseptoria tritici, 48 h
In short: as §1

[8] = tested on: Pythium ultimum; assay: Seed protectant for soybean seedling disease, P. ultimum; format: in vivo; settings: soybean from treated seeds, 0.025 mg/seed, P. ultimum inoculated; for Plant Weight: fresh weight at 14 days; for Improvement in plant weight: percentage of non-inoculated non-treated controls
Protocol: (§3) The pathogen of Rhizoctonia solani inoculum was grown on sterile sorghum; and the pathogen of Pythium ultimum inoculum was grown on white millet.
(§4) Soybean seeds (Glycine max cv. AG4832) were planted in 2.5-inch square pots containing Berger BM2 germination mix amended with fertilizer (e.g., 14-14-14). Pots with soil were inoculated with the pathogen of R. solani or P. ultimum at time of planting. A hole was pressed into the soil to a depth of about 2 to 3 cm; the inoculum was added to the hole, followed by the seed which was then covered with soil. Two seeds per pot were planted. Plants were grown in a growth chamber at conditions of 20 to 24° C., 14 hour light cycle, 500 uM of light, and 65% humidity. The pots inoculated with P. ultimum were sub-irrigated every day; and the pots inoculated with R. solani were sub-irrigated every other day.
(§5) Seedling emergence was captured at 7 and 14 days after seeding. At 14 days, the top of the plant was removed and fresh weight was recorded. The plant weights from the seeds treated with test compounds (e.g., in formulations) were compared to the ones either from the inoculated non-treated seeds or non-inoculated non-treated seeds. Table 10 lists the results of the R. solani control in soybean upon seed treatment with test compounds, and Table 11 lists the results of the P. ultimum control in soybean upon seed treatment with test compounds, respectively.

[9] = tested on: Rhizoctonia solani; assay: Seed protectant for soybean seedling disease, R. solani; format: in vivo; settings: soybean from treated seeds, 0.025 mg/seed, R. solani inoculated; for Plant Weight: fresh weight at 14 days; for Improvement in plant weight: percentage of non-inoculated non-treated controls
Protocol: as §3, §4, §5

[10] = tested on: Phakopsora pachyrhizi; assay: Foliar protection test for Asian soybean rust control; format: in vivo; settings: foliar application to soybean (Glycine max AG4832), percent disease area evaluated 14 days later
[11] = tested on: Fusarium virguliforme (Fv); assay: In vitro pathogen growth inhibition assay, Fv; format: cell-based
In short: as §2

[12] = tested on: Fusarium moniliforme (Fm); assay: In vitro pathogen growth inhibition assay, Fm; format: cell-based; settings: Fusarium verticillioides
In short: as §1

[13] = ≥90% growth inhibition, 48 hours, vs 2% DMSO control, read-out: Compound Concentration (ppm) sufficient for ≥90% inhibition of Cg
[14] = ≥90% growth inhibition, 48 hours, vs 2% DMSO control, read-out: Compound Concentration (ppm) sufficient for ≥90% inhibition of Bc
[15] = ≥90% growth inhibition, 48 hours, vs 2% DMSO control, read-out: Compound Concentration (ppm) sufficient for ≥90% inhibition of Rs
[16] = ≥90% growth inhibition, 48 hours, vs 2% DMSO control, read-out: Compound Concentration (ppm) sufficient for ≥90% inhibition of St
[17] = ≥90% growth inhibition, 48 hours, vs 2% DMSO control, read-out: Compound Concentration (ppm) sufficient for ≥90% inhibition of Fv
[18] = ≥90% growth inhibition, 48 hours, vs 2% DMSO control, read-out: Compound Concentration (ppm) sufficient for ≥90% inhibition of Fm

Structure (SMILES)	Plant Height ([4]; Table 12)	Plant Height ([4]; Table 13)	Wheat Fusarium Head Blight Control at a compound concentration of 25 ppm or lower [5]	Cucumber Powdery Mildew Control at a compound concentration of 10 ppm or lower [6]	Plant Weight [8]	Improvement in plant weight [8]	Plant Weight [9]	Improvement in plant weight [9]	Asian Soybean Rust Control at a compound concentration of 25 ppm or lower [10]	IC90 [1, 13]	IC90 [2, 14]	IC90 [3, 15]	IC90 [7, 16]	IC90 [11, 17]	IC90 [12, 18]	also measured
COc1ccc(F)cc1[C@H](Cn1c(=O)n(C(C)(C)C(=O)NC(C)C)c(=O)c2c(C)c(-n3nccn3)sc21)OCCC#N [Compound I-095, (R)-2-(1-(2-(2-cyanoethoxy)-2-(5-fluoro-2-methoxyphenyl)ethyl)-5-methyl-2,4-dioxo-6-(2H-1,2,3-triazol-2-yl)-1,4-dihydrothieno[2,3-d]pyrimidin-3 (2H)-yl)-N-isopropyl-2-methylpropanamide]	39.41 cm	43.97 cm	B (from 50 to 69% control of wheat fusarium head blight)	AA (≥85% control of cucumber powdery mildew)	4.65 g	74%	7.54 g	93.9%	AA (≥85% control of Asian soybean rust)							IC90 ([1]; ≥90% inhibition, 48 hours vs 2% DMSO control, read-out: Compound Concentration (ppm) sufficient for ≥90% inhibition of growth, Cg): 0.08 µg/mL (≈ 0.134 µM); IC90 ([2]; ≥90% inhibition, 48 hours vs 2% DMSO control, read-out: Compound Concentration (ppm) sufficient for ≥90% inhibition of growth, Bc): 0.4 µg/mL (≈ 0.669 µM); IC90 ([3]; ≥90% inhibition, 48 hours vs 2% DMSO control, read-out: Compound Concentration (ppm) sufficient for ≥90% inhibition of growth, Rs): 0.08 µg/mL (≈ 0.134 µM); IC90 ([7]; ≥90% inhibition, 48 hours vs 2% DMSO control, read-out: Compound Concentration (ppm) sufficient for ≥90% inhibition of growth, St): > 50 µg/mL; IC90 ([11]; ≥90% inhibition, 48 hours vs 2% DMSO control, read-out: Compound Concentration (ppm) sufficient for ≥90% inhibition of growth, Fv): 0.08 µg/mL (≈ 0.134 µM); IC90 ([12]; ≥90% inhibition, 48 hours vs 2% DMSO control, read-out: Compound Concentration (ppm) sufficient for ≥90% inhibition of growth, Fm): 0.08 µg/mL (≈ 0.134 µM)
COc1ccc(F)cc1[C@H](Cn1c(=O)n(C(C)(C)C(=O)NC(C)C)c(=O)c2c(C)c(-n3cccn3)sc21)OCCC#N [Compound I-191, (R)-2-(1-(2-(2-cyanoethoxy)-2-(5-fluoro-2-methoxyphenyl)ethyl)-5-methyl-2,4-dioxo-6-(1H-pyrazol-1-yl)-1,4-dihydrothieno[2,3-d]pyrimidin-3 (2H)-yl)-N-isopropyl-2-methylpropanamide]	35.50 cm		C (from 25 to 49% control of wheat fusarium head blight)	AA (≥85% control of cucumber powdery mildew)	5.00 g	80%	6.39 g	79.6%	A (from 70% to 84% control of Asian soybean rust)	≥ 0.4 µg/mL	0.4 µg/mL (≈ 0.67 µM)	0.08 µg/mL (≈ 0.134 µM)	≥ 10 µg/mL	0.4 µg/mL (≈ 0.67 µM)	0.08 µg/mL (≈ 0.134 µM)	
COc1ccccc1[C@H](Cn1c(=O)n(C(C)(C)C(=O)NC(C)C)c(=O)c2c(C)c(-n3nccn3)sc21)OCCC#N [Compound I-193, (R)-2-(1-(2-(2-cyanoethoxy)-2-(2-methoxyphenyl)ethyl)-5-methyl-2,4-dioxo-6-(2H-1,2,3-triazol-2-yl)-1,4-dihydrothieno[2,3-d]pyrimidin-3 (2H)-yl)-N-isopropyl-2-methylpropanamide]		40.66 cm	B (from 50 to 69% control of wheat fusarium head blight)	AA (≥85% control of cucumber powdery mildew)	5.36 g	86%	6.83 g	85.0%	AA (≥85% control of Asian soybean rust)	≥ 0.08 µg/mL	≥ 0.08 µg/mL	0.08 µg/mL (≈ 0.138 µM)	≥ 2 µg/mL	0.4 µg/mL (≈ 0.69 µM)	0.08 µg/mL (≈ 0.138 µM)	
